Tests used:
[1] = test system: cultured neurocytes of rat fetal cerebral cortex; assay: Activity of accelerating synapse formation (intracellular calcium ion level, fura-2); assay type: cell-based; conditions: relative value, L-PDMP regarded as 100; compound 20 μM; assay on 10th day of culture
Description: The activity of accelerating synapse formation was determined by measuring change of an intracellular calcium ion level resulted from the synchronized spontaneous ignition of neurocytes which is considered to show synapse activities by means of an intracellular calcium ion multipoint observation system using a calcium ion fluorescence indicator, fura-2.
Concretely, rat fetuses at the 18th day of pregnancy were taken out from Wistar rats (available from Japan SLC), and cerebral cortices of the fetuses were taken out and cut into small pieces. After having been treated with papain (manufactured by Worthington Biochemical) at 37° C. for 30 minutes, the pieces were suspended into a Dulbecco modified Eagle's medium containing 5% bovine neonatal serum and 5% equine serum and the cortices were dissociated into single cells with Cell Striner (70 μm, Falcon). Then, the cells were inoculated into a flexiperm plate coated with 0.5% polyethyleneimine (1.0×10^6 cells/500 μl/well), and was cultured in 7% CO2 incubator at 37° C. The medium was exchanged on 2nd, 5th, and 8th days after the culture had been started. The activity of the compound of the present invention was measured using the primary culture. The compound was added at the time when the medium was exchanged and the concentration of the compound was maintained to be 20 μM. Assay was carried out on 10th day after the culture had been started.
(2) Measurement of Activity of Accelerating Synapse Formation
Concretely, after the medium of each well where cells were cultured was substituted with basic salt solution (BSS), 3 μl of a DMSO solution (1 mg/ml) of a calcium ion fluorescence indicator fura-2 was added, and the whole was kept at 37° C. for 1 hour.

[2] = test system: enzyme for ganglioside GM3 synthesis, mouse B16 melanoma cell; assay: Activity of enzyme for ganglioside GM3 synthesis (14C-Gal incorporated in total lipid fraction); assay type: cell-based; conditions: relative value, control regarded as 100; test compound 24 μM, 24 hours; 14C-Gal incorporation
Description: The gangliosides produced by mouse B16 melanoma cell are almost composed of ganglioside GM3. Therefore, the activity of the enzyme for ganglioside GM3 synthesis can be determined conveniently by measuring the amount of ^14C-Gal incorporated in a total lipid-extracted fraction through a liquid layer partition method.
A liquid where the cells of mouse B16 melanoma were suspended was prepared with Dulbecco modified Eagle's medium containing 10% bovine fetal serum, inoculated into a 12-well plate in an amount of 2.0×10^5 cells/ml/well, and cultured in 5% CO2 incubator at 37° C. The treatment with a test compound (24 μM) and the addition of ^14C-Gal (22.2 kBq/11.7 nmol/6 μl/well) were started through the exchange of total amount of the medium 24 hours after the culture was started. Twenty-four hours after the treatment with the test compound was started, the culture mixture was treated with PBS containing 0.02% EDTA and PBS containing 0.25% trypsin successively to recover the cells.
Then, a mixed solvent of chloroform:methanol=2:1 (3 ml) was added to the cell pellet and, after the subjection to an ultrasonication for 30 minutes, the supernatant was recovered. Furthermore, a mixed solvent of chloroform:methanol=1:1 (3 ml) was added to the residual pellet after the recovery of the supernatant, and a similar operation was carried out. The resulting supernatant was combined with the first supernatant and the whole was evaporated to dryness under a nitrogen stream. A desalinated water (1.0 ml) was added to the total lipid-extracted fraction. After having been subjected to an ultrasonication for 1 minute, the mixture was transferred into a dialysis tube and dialyzed against water for 2 days. The sample after the dialysis was transferred into a vial for liquid scintillation counter and, after the addition of scintillator, the activity of incorporating ^14C-Gal was measured on scintillation counter.
The values of activity of the compounds of the present invention are shown as relative values obtained by calculation on the basis that the value of a control (a group where no test compound was added) is regarded as 100 in Table 3 below.

[3] = Tissue distribution: concentration in plasma and skeletal muscle after oral or intravenous administration; assay type: in vivo; conditions: male, Wistar, plasma, rat
Description: Tissue distribution of the compound in Example 19 was compared with that of L-PDMP using 6-8 week old Wistar male rats.
As oral administration, a physiological saline containing 20 mg/ml of a test substance was administered at 100 mg/5 ml/kg, and as intravenous administration, a physiological saline containing 1.25 mg/ml of a test substance was administered to the cervical vein at 5 mg/4 ml/kg.
After the predetermined time had passed since the above administration, blood was collected from the rat cervical vein, a 3.8% sodium citrate solution was added thereto at 1/10 volume, followed by centrifugation at 3,000 rpm for 15 minutes to obtain the supernatant as a plasma sample.
Also, after the predetermined time had passed since the above administration, the skeletal muscle was collected from the femoral region of both hind legs, ice water was added thereto at 4 ml/g tissue, followed by homogenization, and the same volume of acetonitrile was added thereto, followed by vigorously stirring and centrifugation at 4000 rpm for 10 minutes to obtain the supernatant as a skeletal muscle sample.
The plasma and skeletal muscle samples were extracted by OASIS HLB solid phase extraction column (manufactured by Waters), and the concentration of the test compound in the plasma and the muscle was determined by high performance liquid chromatography (HPLC). The conditions of HPLC analysis were as follows:
Detection wavelength: 218 nm
Column: DAISO PACK SP-120-5-ODS-BP
Column temperature: 40° C.
Mobile phase: 0.1% trifluoroacetic acid solution:methanol=36:64 (for L-PDMP); 0.1% trifluoroacetic acid solution:methanol=48:52 (for the compound in Example 19)
The concentrations in the plasma and skeletal muscle of the compound in Example 19 and L-PDMP after the predetermined time has been passed since the administration of the test compounds are shown in Tables 4-6 below. The values are the mean values of at least two test samples. Specifically, Table 4, Table 5, and Table 6 show the concentrations in the plasma after the oral administration of 100 mg/kg, the concentrations in the skeletal muscle after the oral administration of 100 mg/kg, and the concentrations in the plasma after the intravenous administration of 5 mg/kg, respectively.

neurite = conditions: literature; cited from earlier work
neurocytes = conditions: J. Neurochem. 67: 1821-1830, 1996; cited from earlier work
synapse formation = conditions: WO 95/05177; cited from earlier work
[4] = test system: MAPkinase (mitogen-activated protein kinase); conditions: Biochem. Biophys. Res. Commun. 237: 595-600 (1997); cited from earlier work
[5] = test system: enzyme for GQ1b synthesis; conditions: Biochem. Biophys. Res. Commun. 237: 595-600 (1997); cited from earlier work

concentration at 10 min ([3]; intravenous administration of 5 mg/kg, 10 min): 1030 ng/mL | concentration at 25 min ([3]; intravenous administration of 5 mg/kg, 25 min): 620 ng/mL | concentration at 5 min ([3]; oral administration of 100 mg/kg, 5 min): 10 ng/mL | concentration at 15 min ([3]; oral administration of 100 mg/kg, 15 min): 1360 ng/mL | concentration at 30 min ([3]; oral administration of 100 mg/kg, 30 min): 2100 ng/mL | concentration at 60 min ([3]; oral administration of 100 mg/kg, 60 min): 1440 ng/mL
Compound: CCCCCCCCCC(=O)N[C@@H](CN1CCOCC1)[C@@H](O)c1ccccc1 [L-PDMP, (1S,2S)-1-phenyl-2-decanoylamino-3-morpholino-1-propanol, reference compound]
Activity of synapse formation [1]: 100.0 | Activity of accelerating glycolipid biosynthesis (Test Example 2) [2]: 95.2 | effect on neurite extension (neurite): effect of accelerating neurite extension | effect on ganglioside biosynthesis of neurocytes (neurocytes): accelerate ganglioside biosynthesis of neurocytes | effect on synapse formation (synapse formation): effect of accelerating synapse formation | effect on MAPkinase [4]: activates MAPkinase for a long period of time | effect on activity of enzyme for GQ1b synthesis [5]: increases the activity of an enzyme for GQ1b synthesis

From patent US6407064B2, “Aminoalcohol derivative and medicament comprising the same” (Seikagaku Corporation, priority 1999, dated 2002)
